Legend:
Assay type in all cases: physicochemical
[1] = DVS (dynamic moisture adsorption analysis); details: 0% RH-80% RH
[2] = Hot stage XRD
[3] = TGA (thermogravimetric analysis)
[4] = Stability evaluation of crystal form in a dry state at room temperature; details: placed in a dry state at room temperature for 3 days
[5] = Crystal form competitive experiment; details: in ethanol and in a mixed solvent of ethanol/water at room temperature
Method: (§1) A competitive experiment between crystal form 1 and crystal form A of polymyxin sulfate was carried out to investigate crystal form stability of the two crystal forms in the solvent, water and ethanol, which are commonly used in the preparation, and to evaluate the conversion of the two crystal forms, in order to provide reference for subsequent preparation operations such as granulation.
1. Equal amounts of samples of crystal form 1 and form A were taken and mixed uniformly to obtain an initial mixed sample, which was used for XRD detection (FIG. 14).
2. The uniformly-mixed sample was divided into two portions, to one of which was added 200 μL ethanol, and to another of which was added 300 μL mixed solvent of ethanol/water=5/1 (v/v), to form a suspension. The suspension was stirred at room temperature, and centrifuged and sampled at different times for XRD detection.

[6] = Crystal mush experiment at room temperature; details: in ethanol and in a mixed solvent of ethanol/water at room temperature
Method: as §1

| hygroscopicity [1] | most stable crystal form (competitive experiment) [5] | most stable crystal form (crystal mush experiment) [6] | Substance | crystal form change on heating [2] | decomposition temperature [3] | Stability evaluation [4] |
| --- | --- | --- | --- | --- | --- | --- |
| extremely strong hygroscopicity. | – | – | polymyxin B1 sulfate [crystal form 1] | The crystal form has not changed when heating up to 170 °C | XRD, and the decomposition temperature was 222 °C | Unstable, the crystal form changed to crystal form A when placed |
| extremely strong hygroscopicity. | most stable crystal form | most stable crystal form | polymyxin B1 sulfate [crystal form A] | – | with hot stage XRD, and the decomposition temperature was 213 °C | – |
